The record followed here is patent publication US9522881B2, “Hydroxyindole carboxylic acid based inhibitors for oncogenic Src homology-2 domain containing protein tyrosine phosphatase-2 (SHP2)” (Indiana University Research and Technology Corporation, priority 2013, dated 2016).

Structures are written as SMILES. Entries after “also recorded” stand apart in the source; their conditions may differ.

Chain of SHP2 (Q06124 whole entry, looked up): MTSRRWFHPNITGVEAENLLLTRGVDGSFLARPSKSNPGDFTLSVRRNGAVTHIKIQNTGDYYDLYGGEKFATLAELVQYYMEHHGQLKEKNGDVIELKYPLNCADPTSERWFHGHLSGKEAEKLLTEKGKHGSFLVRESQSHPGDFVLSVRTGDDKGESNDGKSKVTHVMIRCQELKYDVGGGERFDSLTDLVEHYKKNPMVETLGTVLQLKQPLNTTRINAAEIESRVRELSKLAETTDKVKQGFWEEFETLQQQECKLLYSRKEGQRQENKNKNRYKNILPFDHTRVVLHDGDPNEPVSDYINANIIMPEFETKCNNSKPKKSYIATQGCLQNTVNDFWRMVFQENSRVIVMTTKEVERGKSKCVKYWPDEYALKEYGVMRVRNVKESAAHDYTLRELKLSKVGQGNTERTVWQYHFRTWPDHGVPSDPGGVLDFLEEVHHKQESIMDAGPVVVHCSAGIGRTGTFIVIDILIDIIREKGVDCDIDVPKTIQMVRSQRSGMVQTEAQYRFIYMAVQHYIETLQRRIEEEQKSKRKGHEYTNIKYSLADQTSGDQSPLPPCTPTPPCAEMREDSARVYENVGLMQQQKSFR

The test system of one assay is Paxillin (pY118). The assay is described as follows: Paxillin (pY118) phosphorylation in H1975 cells (immunoblot). Format: cell-based, human. Conditions: 2 μM. The protocol:
(§1) For biochemical studies, H1975 cells were serum-starved overnight followed by treatment with vehicle or compound 11a-1 for 3 hours, and then either left unstimulated or stimulated with 5 ng/ml EGF (Sigma, St. Louis, Mo.) for 60 minutes. Lysates were then resolved by SDS-PAGE and the protein phosphorylation levels were detected by immunoblot analysis. Specifically, cells were lysed in lysis buffer (1.0% Nonidet P-40, 50 mM Tris-HCl (pH 7.4), 150 mM NaCl, 5 mM EDTA, 2 mM NaVO3, 10 mM NaF) plus a protease inhibitor mixture available from Roche (Basel, Switzerland) and centrifuged at 10,000 rpm for 5 minutes at 4° C. Supernatants were collected and protein concentration was determined using the BCA protein assay (ThermoFisher Scientific, Rockford, Ill.). Equal amount of protein extracts were mixed with gel loading buffer and separated on SDS-PAGE. After electrophoresis, the proteins were transferred onto nitrocellulose membranes and nonspecific binding was blocked with 5% nonfat dry milk in Tris-buffered saline containing 0.1% Tween-20 (TBS-T). Membranes were then probed with various antibodies overnight at 4° C. on a rocker. After incubation, membranes were washed with TBS-T and incubated with appropriate horseradish peroxidase (HRP)-conjugated secondary antibodies for 1 hour at room temperature. Finally, the proteins on the membranes were detected using SuperSignal West Dura Luminol/Enhancer solution (ThermoFisher Scientific, Rockford, Ill.) and membranes were analyzed using Bio-Rad ChemiDoc XRS Imaging System.
`Cn1c(-c2cccc(NC(=O)C(=O)O)c2)c(I)c2cc(C(=O)O)c(O)cc21` [10a, 2-(3-(carboxyformamido)phenyl)-6-hydroxy-3-iodo-1-methyl-1H-indole-5-carboxylic acid]: the “effect on Paxillin phosphorylation, in words” value was “no effect”.

The target of the next assay is SHP2 (D2C) (Homo sapiens (Human), UniProt Q06124). Put plainly: SHP2 (D2C) pNPP inhibition assay, hits of library 7′a-c. Format: biochemical.
Chain of SHP2 (D2C) (Q06124 240-528): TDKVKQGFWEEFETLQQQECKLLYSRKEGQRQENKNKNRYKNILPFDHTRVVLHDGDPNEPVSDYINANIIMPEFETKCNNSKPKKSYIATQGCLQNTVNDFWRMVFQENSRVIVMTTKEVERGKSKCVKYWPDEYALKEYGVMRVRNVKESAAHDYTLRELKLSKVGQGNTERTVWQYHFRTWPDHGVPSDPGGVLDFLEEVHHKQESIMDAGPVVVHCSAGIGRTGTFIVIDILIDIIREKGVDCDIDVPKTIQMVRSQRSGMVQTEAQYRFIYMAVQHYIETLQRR
Conditions: not given
The protocol: These three libraries were further screened at 10 μM for SHP2. […] Three pairs of hits bearing the same amine scaffold from library 7′a and 7′c were resynthesized and purified by HPLC. […] (Table 1).
In this Example, SHP2 (D2C) was used to transform into E. coli BL21/DE3 and grown in LB medium containing 50 μg/ml kanamycin at 37° C. to an OD600 of 0.4. Following the addition of IPTG to a final concentration of 20 μM, the culture was incubated at 20° C. with shaking for an additional 16 hours. The cells were harvested by centrifugation at 5000 rpm for 5 minutes at 4° C. The bacterial cell pellets were resuspended in 20 mM Tris, pH 7.9, 500 mM NaCl, 5 mM imidazole, and were lysed by passage through a French press cell at 1,200 psi twice. Cellular debris was removed by centrifugation at 16,000 rpm for 30 minutes at 4° C. The protein was purified from the supernatant using standard procedures of Ni-nitrilotriacetic acid-agarose (Qiagen) affinity purification. The protein eluted from Ni-NTA column was concentrated with an Amicon Ultra centrifugal filter device (Millipore) and the buffer was changed to 20 mM Tris, pH 7.5, 150 mM NaCl, 1 mM EDTA and 1 mM DTT. Protein concentration was determined using the Bradford dye binding assay (Bio-Rad) diluted according to the manufacturer's recommendations with bovine serum albumin as standard. The purified SHP 2 (D2C) were made to 30% glycerol and stored at −20° C.
Inhibition Study: The inhibition assays were performed at 25° C. in 50 mM 3,3-dimethylglutarate buffer, pH 7.0, containing 1 mM EDTA with an ionic strength of 0.15M adjusted by NaCl. The salicylic acid based library was screened in a 96-well format at 10 μM compound concentration. […] The reaction was quenched after 10 minutes by the addition of 50 μl of 5N NaOH, and then this reaction mixture was detected for absorbance at 405 nm by a Spectra MAX340 microplate spectrophotometer (Molecular Devices). IC50 values were calculated by fitting the absorbance at 405 nm versus inhibitor concentration to the following equation: AI/A0=IC50/(IC50+[I]) where AI is the absorbance at 405 nm of the sample in the presence of inhibitor; A0 is the absorbance at 405 nm in the absence of inhibitor; and [I] is the concentration of the inhibitor.
Consider `Cn1c(-c2ccc(C(=O)Nc3ccc(OCc4ccccc4)c(Cl)c3)cc2)c(I)c2cc(C(=O)O)c(O)cc21` [7′c-3, 2-(4-((4-(benzyloxy)-3-chlorophenyl)carbamoyl)phenyl)-6-hydroxy-3-iodo-1-methyl-1H-indole-5-carboxylic acid], for which the “potency for SHP2 relative to 7′a-3” value came out at 12 fold.

Still in this assay, the particulars now being: pNPP substrate, pH 7, 25° C.; library 7′a / 7′c hits.
As for `Cn1c(CCCC(=O)O)c(I)c2cc(C(=O)O)c(O)cc21` [7′a, 2-(3-carboxypropyl)-6-hydroxy-3-iodo-1-methyl-1H-indole-5-carboxylic acid], the IC50 was over 20 µM.

As for `Cn1c(CCCC(=O)Nc2cccc(OCc3ccccc3)c2)c(I)c2cc(C(=O)O)c(O)cc21` [7′a-1, 2-(4-((3-(benzyloxy)phenyl)amino)-4-oxobutyl)-6-hydroxy-3-iodo-1-methyl-1H-indole-5-carboxylic acid], inhibition was half-maximal at 5 ± 0.3 µM (IC50).

With `Cn1c(CCCC(=O)NCc2ccc3c(c2)OCO3)c(I)c2cc(C(=O)O)c(O)cc21` [7′a-2, 2-(4-((benzo[d][1,3]dioxol-5-ylmethyl)amino)-4-oxobutyl)-6-hydroxy-3-iodo-1-methyl-1H-indole-5-carboxylic acid], the IC50 was 12.6 ± 2.8 µM.

`Cn1c(CCCC(=O)Nc2ccc(OCc3ccccc3)c(Cl)c2)c(I)c2cc(C(=O)O)c(O)cc21` [7′a-3, 2-(4-((4-(benzyloxy)-3-chlorophenyl)amino)-4-oxobutyl)-6-hydroxy-3-iodo-1-methyl-1H-indole-5-carboxylic acid]: the IC50 was over 20 µM.

`Cn1c(-c2ccc(C(=O)O)cc2)c(I)c2cc(C(=O)O)c(O)cc21` [7′c, 2-(4-carboxyphenyl)-6-hydroxy-3-iodo-1-methyl-1H-indole-5-carboxylic acid] returned a concentration for half-maximal inhibition (IC50) of 9.2 ± 0.5 µM.

The compound `Cn1c(-c2ccc(C(=O)Nc3cccc(OCc4ccccc4)c3)cc2)c(I)c2cc(C(=O)O)c(O)cc21` [7′c-1, 2-(4-((3-(benzyloxy)phenyl)carbamoyl)phenyl)-6-hydroxy-3-iodo-1-methyl-1H-indole-5-carboxylic acid] came in with an IC50 of 2.4 ± 0.1 µM.

For the compound `Cn1c(-c2ccc(C(=O)Nc3ccc(OCc4ccccc4)c(Cl)c3)cc2)c(I)c2cc(C(=O)O)c(O)cc21` [7′c-3, 2-(4-((4-(benzyloxy)-3-chlorophenyl)carbamoyl)phenyl)-6-hydroxy-3-iodo-1-methyl-1H-indole-5-carboxylic acid], inhibition was half-maximal at 1.6 µM (IC50).

The next assay concerns the target SHP2 (Homo sapiens (Human), UniProt Q06124). The assay is described as follows: SHP2-catalyzed hydrolysis of p-nitrophenyl phosphate (pNPP). It counts as biochemical. Conditions: pNPP substrate, pH 7.0, 25° C. As to the method: Libraries 11a-d were screened at ˜5 μM for SHP2 inhibitors without further purification. The ability of the library components to inhibit the SHP2-catalyzed hydrolysis of p-nitrophenyl phosphate (pNPP) was evaluated at pH 7.0 and 25° C. More particularly, the phosphatase activity of SHP2 was assayed using p-nitrophenyl phosphate (pNPP) as a substrate at 25° C. in 50 mM 3,3-dimethylglutarate buffer, pH 7.0, containing 1 mM EDTA with an ionic strength of […] adjusted by NaCl. The libraries were screened in a 96-well format at 5 μM compound concentration. […] The nonenzymatic hydrolysis of pNPP was corrected by measuring the control without the addition of enzyme. The amount of product p-nitrophenol was determined from the absorbance at 405 nm detected by a Spectra MAX340 microplate spectrophotometer (Molecular Devices, Sunnyvale, Calif.) using a molar extinction coefficient of 18,000 M^−1 cm^−1. […] IC50 values for selected resynthesized and purified hits were calculated by fitting the absorbance at 405 nm versus inhibitor concentration to the following equation: AI/A0=IC50/(IC50+[I]) where AI is the absorbance at 405 nm of the sample in the presence of the inhibitor; A0 is the absorbance at 405 nm in the absence of inhibitor; and [I] is the concentration of the inhibitor.
On to `Cn1c(-c2cccc(NC(=O)C(=O)O)c2)c(I)c2cc(C(=O)O)c(O)cc21` [10a, 2-(3-(carboxyformamido)phenyl)-6-hydroxy-3-iodo-1-methyl-1H-indole-5-carboxylic acid], for which the IC50 worked out at 14.4 µM.

`Cn1c(-c2cccc(NC(=O)CCC(=O)Nc3ccc(OCc4ccccc4)c(Cl)c3)c2)c(I)c2cc(C(=O)O)c(O)cc21` [11c-3, 2-(3-(4-((4-(benzyloxy)-3-chlorophenyl)amino)-4-oxobutanamido)phenyl)-6-hydroxy-3-iodo-1-methyl-1H-indole-5-carboxylic acid] gave an IC50 of 5 ± 0.9 µM.

For `Cn1c(-c2cccc(NC(=O)CCC(=O)Nc3cccc(OCc4ccccc4)c3)c2)c(I)c2cc(C(=O)O)c(O)cc21` [11c-4, 2-(3-(4-((3-(benzyloxy)phenyl)amino)-4-oxobutanamido)phenyl)-6-hydroxy-3-iodo-1-methyl-1H-indole-5-carboxylic acid], 4.5 ± 1.4 µM corresponded to half-maximal inhibition (IC50).

`Cn1c(-c2cccc(NC(=O)CCC(=O)Nc3cccc(-c4ccccc4)c3)c2)c(I)c2cc(C(=O)O)c(O)cc21` [11c-5, 2-(3-(4-([1,1′-biphenyl]-3-ylamino)-4-oxobutanamido)phenyl)-6-hydroxy-3-iodo-1-methyl-1H-indole-5-carboxylic acid]: 5.3 ± 0.9 µM corresponded to half-maximal inhibition (IC50).

Take `Cn1c(-c2cccc(NC(=O)CCC(=O)N3CCc4cc(Br)ccc43)c2)c(I)c2cc(C(=O)O)c(O)cc21` [11c-6, 2-(3-(4-(5-bromoindolin-1-yl)-4-oxobutanamido)phenyl)-6-hydroxy-3-iodo-1-methyl-1H-indole-5-carboxylic acid]: half-maximal inhibition (IC50) was put at 7.2 ± 0.9 µM.

Turning to `Cn1c(-c2cccc(NC(=O)CCC(=O)Nc3ccc(OC(F)(F)F)cc3)c2)c(I)c2cc(C(=O)O)c(O)cc21` [11c-7, 6-hydroxy-3-iodo-1-methyl-2-(3-(4-oxo-4-((4-(trifluoromethoxy)phenyl)amino)butanamido)phenyl)-1H-indole-5-carboxylic acid], the IC50 is 8.6 ± 2.3 µM.

For the compound `CC(C)c1ccc(NC(=O)CCC(=O)Nc2cccc(-c3c(I)c4cc(C(=O)O)c(O)cc4n3C)c2)cc1` [11c-8, 6-hydroxy-3-iodo-2-(3-(4-((4-isopropylphenyl)amino)-4-oxobutanamido)phenyl)-1-methyl-1H-indole-5-carboxylic acid], the IC50 was 10.7 ± 2.4 µM.

On to `Cn1c(-c2cccc(NC(=O)CCC(=O)NCc3ccc4c(c3)OCO4)c2)c(I)c2cc(C(=O)O)c(O)cc21` [11c-9, 2-(3-(4-((benzo[d][1,3]dioxol-5-ylmethyl)amino)-4-oxobutanamido)phenyl)-6-hydroxy-3-iodo-1-methyl-1H-indole-5-carboxylic acid], for which the IC50 was 14 ± 1 µM.

In the case of `CCCN(CC1CC1)C(=O)CCC(=O)Nc1cccc(-c2c(I)c3cc(C(=O)O)c(O)cc3n2C)c1` [11c-10, 2-(3-(4-((cyclopropylmethyl)(propyl)amino)-4-oxobutanamido)phenyl)-6-hydroxy-3-iodo-1-methyl-1H-indole-5-carboxylic acid], the IC50 was over 20 µM.

`Cn1c(-c2cccc(NC(=O)CCC(=O)Nc3nccs3)c2)c(I)c2cc(C(=O)O)c(O)cc21` [11c-11, 6-hydroxy-3-iodo-1-methyl-2-(3-(4-oxo-4-(thiazol-2-ylamino)butanamido)phenyl)-1H-indole-5-carboxylic acid] returned an IC50 of 26 ± 5 µM.

The subject of another assay is EGF-induced Erk1/2 phosphorylation. The assay is described as follows: EGF-induced Erk1/2 phosphorylation in H1975 cells (immunoblot). The note with it: H1975 cells, 2 μM. Format: cell-based, human. The protocol: as §1
`Cn1c(-c2cccc(NC(=O)C(=O)O)c2)c(I)c2cc(C(=O)O)c(O)cc21` [10a, 2-(3-(carboxyformamido)phenyl)-6-hydroxy-3-iodo-1-methyl-1H-indole-5-carboxylic acid]: the “effect on Erk1/2 phosphorylation (SHP2 dependent signaling), in words” value was “no effect; also recorded: failed to block”.
